# Source: patent US20230053342A1, “IMIDAZOLIDINONE COMPOUND, PREPARATION METHOD THEREFOR AND USE THEREOF” (BETTA PHARMACEUTICALS CO., LTD, priority 2019, published 2023)
# Assays:
# [1] = system: human tumor cells HGC27; assay: Cell proliferation assay (CellTiter Glo), HGC27; assay type: cell-based; settings: HGC-27, HGC27 cells incubated for 96 h, read-out: IC50(μM) of ompound on HGC-27cell
# Protocol: (§1) Method: The anti-proliferative effects on human tumor cells MCF-7 and HGC27 of certain compounds of the present invention were evaluated by CellTiter Glo assay.
# (§2) Detection method: MCF-7 cells were suspended in DMEM culture medium, the cell concentration of which was adjusted to 25000 cells/mL; HGC27 cells were suspended in RPMI-1640 culture medium, the cell concentration of which was adjusted to 5000 cells/mL. 100 μL of cell suspension was dispensed to a 96-well assay plate and placed in a CO2 incubator overnight. The tested compounds were dissolved in DMSO, and 3-fold derail dilution was performed to obtain 10-point concentrations. the 10-point concentrations of the tested compounds or or negative control was transferred to the well containing 100 μL of culture medium respectively, incubated at 37° C., 5% CO2, the HGC27 cells were incubated for 96 h, MCF-7 cells were incubated for 120 h. Then 100 μL of CellTiter-Glo agent was added to the above-mentioned 96-well assay plate, incubated at room temperature for 10 minutes to allow stable luminescence signal. VICTOR™ X5 instrument was used to record RLU (relative luminescence unit), and then calculate the IC50 values were calculated.
# (§3) Compound inhibition rate(% inh)=100% −(tested compound RLU-blank control RLU)/(negative control RLU-blank control RLU)*100%
# (§4) Blank control: blank culture medium, with no compound or cell;
# (§5) The IC50 (half inhibitory concentration) of the compound was obtained using the following nonlinear fitting formula:
# (§6) Y=minimum inhibition rate+(max inhibition rate-minimum inhibition rate)/(1+10^((Log IC50−X)*slope)); wherein, X: the log value of the concentration of the tested compound; Y: the inhibition rate of the tested compound(% inh).
# [2] = system: human tumor cells MCF-7; assay: Cell proliferation assay (CellTiter Glo), MCF-7; assay type: cell-based; settings: MCF7, MCF-7 cells incubated for 120 h, read-out: IC50(μM) of compound on MCF cell
# Protocol: as §1, §2, §3, §4, §5, §6
# [3] = Pharmacokinetic test in male SD rats; assay type: in vivo; settings: rat, plasma; for clearance: intravenous injection, 2 mg/kg; for AUC / Cmax: po, gavage, 10 mg/kg
# Protocol: Method: 42 male SD rats, weight: 150-300 g. Divided into 7 groups randomly, with 6 rats in each group. Among the 6 rats in each group, three of them were administrated a single intravenous injection of […] of the example compound, the other three were given intragastric administration of […] of the example compound, blood was collected from the orbital venous plexus at designated time points, plasma was separated, and stored in a −80° C. refrigerator for later use.
# The protein of the resultant plasma was precipitated by acetonitrile, the supernatant was extracted, and mixed with water at the ratio of 1:1, took 10 μL of which for LC-MS/MS detection, and calculated the average was calculated.
# [4] = target: PI3Kγ (Homo sapiens, UniProt P48736); assay: Kinase experiment (ADP-Glo, luminescence), PI3Kγ; assay type: biochemical; settings: final concentration of ATP 10 μM; read-out: IC50 of compound to PI3K (nM) γ
# PI3Kγ, sequence (P48736 whole entry): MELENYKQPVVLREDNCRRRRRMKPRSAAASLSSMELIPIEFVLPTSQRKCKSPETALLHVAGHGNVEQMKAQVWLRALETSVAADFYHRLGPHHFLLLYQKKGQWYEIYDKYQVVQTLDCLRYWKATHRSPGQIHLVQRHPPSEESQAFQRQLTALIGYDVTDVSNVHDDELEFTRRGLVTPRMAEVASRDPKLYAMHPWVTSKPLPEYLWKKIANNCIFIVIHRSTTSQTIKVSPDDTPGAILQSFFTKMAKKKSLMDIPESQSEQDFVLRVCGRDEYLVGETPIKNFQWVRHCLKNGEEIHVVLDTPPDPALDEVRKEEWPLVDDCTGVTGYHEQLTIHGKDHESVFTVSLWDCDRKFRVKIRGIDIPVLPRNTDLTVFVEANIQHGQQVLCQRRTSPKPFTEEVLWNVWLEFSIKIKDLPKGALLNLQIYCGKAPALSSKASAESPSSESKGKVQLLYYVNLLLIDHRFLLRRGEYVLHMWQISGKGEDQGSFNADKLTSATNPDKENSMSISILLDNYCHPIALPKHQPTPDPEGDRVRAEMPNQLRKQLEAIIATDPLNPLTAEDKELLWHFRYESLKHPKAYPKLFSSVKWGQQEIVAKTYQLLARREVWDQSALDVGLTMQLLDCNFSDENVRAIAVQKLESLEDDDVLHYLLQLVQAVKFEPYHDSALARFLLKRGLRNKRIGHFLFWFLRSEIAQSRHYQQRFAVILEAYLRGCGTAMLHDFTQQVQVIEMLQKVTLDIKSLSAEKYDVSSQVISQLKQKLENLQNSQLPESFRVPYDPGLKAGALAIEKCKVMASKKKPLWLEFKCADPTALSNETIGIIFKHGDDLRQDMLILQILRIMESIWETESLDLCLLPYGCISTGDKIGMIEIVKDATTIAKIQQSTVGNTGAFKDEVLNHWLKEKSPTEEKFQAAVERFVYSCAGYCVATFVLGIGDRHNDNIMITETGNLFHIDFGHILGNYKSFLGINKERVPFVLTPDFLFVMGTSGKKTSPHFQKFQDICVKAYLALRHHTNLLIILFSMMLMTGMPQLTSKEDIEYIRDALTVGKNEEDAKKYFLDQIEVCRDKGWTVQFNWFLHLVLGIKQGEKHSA
# Protocol: (§7) PI3Kα, PI3Kβ, PI3Kγ kinases undergo enzymatic reactions with their substrates ATP and PIP2:3PS, the amount of the product detected by ADP-Glo agent and luminescence method were used to reflect the enzymatic activities of PI3Kα, PI3Kβ, PI3Kγ (the final concentration of ATP is 10 μM). The above methods were used to test the inhibitory activity of certain compound of the present invention on PI3Kα, PI3Kβ and PI3Kγ kinase.
# (§8) Agent: Basic kinase buffer (pH 7.5); PI3Kα, PI3Kβ, PI3Kγ kinase solutions; PIP2:3PS and ATP solutions; ADP-Glo kit (containing 10 mM MgCl2).
# (§9) Wherein, the buffer composition: 50 mM Hepes (pH 7.2-7.5), 3 mM MgCl2, 1 mM EGTA, 0.03% CHAPS, 100 mM NaCl, 2 mM DTT; • Compound preparation: The tested compound was diluted to a specific concentration with 100% DMSO. • Process: 1) PI3Kα, PI3Kβ, or PI3Kγ protein solution were dispensed to a 384-well assay plate (6008280, PerkinElmer), and centrifuged at 1000 rpm for 1 minute. • 2) Tested compound, negative control DMSO or positive control BYL719 was dispensed to the above-mentioned 384-well assay plate with the kinase, centrifuged at 1000 rpm for 1 min, and incubated at 25° C. for 15 mins. • 3) PIP2:3PS&ATP solution was added to the above-mentioned 384-well assay plate, centrifuged at 1000 rpm for 1 min, incubated at 25° C. for 60 mins. • 4) 5 μL of ADP-Glo agent (10 mM MgCl2 contained) was transferred to the 384-well assay plate, centrifuged at 1000 rpm for 1 min, incubated at 25° C. for 40 mins. • 5) 10 μL of Detection agent was transferred to the 384-well assay plate, centrifuged at 1000 rpm for 1 min, incubated at 25° C. for 40 mins. • 6) RLU (Relative luminescence unit) value was measured by Envision multifunctional plate reader. The RLU value was used to characterize the degree of reaction between the enzyme and the substrate, and calculate the IC50 value. • 7) Data analysis:
# (§10) Compound inhibition rate(% inh)=(negative control RLU-tested compound RLU)/(negative control RLU-positive control RLU)*100%
# as §5
# (§11) Y=minimum inhibition rate+(max inhibition rate-minimum inhibition rate)/(1+10^((Log IC50−X)*slope)); wherein, X is the log value of the concentration of the tested compound, Y is the inhibition rate of tested compound(% inh).
# [5] = target: PI3Kα (Homo sapiens, UniProt P42336); assay: Kinase experiment (ADP-Glo, luminescence), PI3Kα; assay type: biochemical; settings: final concentration of ATP 10 μM; read-out: IC50 of compound to PI3K (nM) α
# PI3Kα, sequence (P42336 whole entry): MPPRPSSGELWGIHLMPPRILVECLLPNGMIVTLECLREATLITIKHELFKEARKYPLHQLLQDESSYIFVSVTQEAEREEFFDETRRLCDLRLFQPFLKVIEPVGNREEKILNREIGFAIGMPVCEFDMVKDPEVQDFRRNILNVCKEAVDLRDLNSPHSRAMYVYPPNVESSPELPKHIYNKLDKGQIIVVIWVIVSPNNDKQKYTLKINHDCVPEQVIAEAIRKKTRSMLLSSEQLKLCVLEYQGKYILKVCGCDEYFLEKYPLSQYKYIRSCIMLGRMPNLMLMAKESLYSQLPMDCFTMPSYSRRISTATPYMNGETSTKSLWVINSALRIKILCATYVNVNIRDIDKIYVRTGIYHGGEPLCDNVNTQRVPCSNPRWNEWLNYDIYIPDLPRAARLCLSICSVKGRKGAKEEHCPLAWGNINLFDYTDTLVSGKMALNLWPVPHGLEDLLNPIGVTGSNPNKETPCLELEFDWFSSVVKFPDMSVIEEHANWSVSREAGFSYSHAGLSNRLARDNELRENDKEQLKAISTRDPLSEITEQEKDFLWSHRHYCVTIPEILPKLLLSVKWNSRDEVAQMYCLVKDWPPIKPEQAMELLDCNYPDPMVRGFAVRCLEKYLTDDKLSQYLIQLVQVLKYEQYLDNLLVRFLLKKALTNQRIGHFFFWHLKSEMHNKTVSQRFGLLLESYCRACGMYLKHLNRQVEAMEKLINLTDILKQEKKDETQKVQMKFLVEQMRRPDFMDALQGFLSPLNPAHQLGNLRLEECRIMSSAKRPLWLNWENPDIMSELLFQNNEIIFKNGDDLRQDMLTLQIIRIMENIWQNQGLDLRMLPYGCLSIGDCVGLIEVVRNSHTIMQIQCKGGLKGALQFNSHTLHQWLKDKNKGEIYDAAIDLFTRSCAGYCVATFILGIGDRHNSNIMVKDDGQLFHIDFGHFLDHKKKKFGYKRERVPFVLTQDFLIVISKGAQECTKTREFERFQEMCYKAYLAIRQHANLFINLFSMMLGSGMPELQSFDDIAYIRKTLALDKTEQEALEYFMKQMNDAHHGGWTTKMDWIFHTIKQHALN
# PI3Kα, sequence (P27986 whole entry partner): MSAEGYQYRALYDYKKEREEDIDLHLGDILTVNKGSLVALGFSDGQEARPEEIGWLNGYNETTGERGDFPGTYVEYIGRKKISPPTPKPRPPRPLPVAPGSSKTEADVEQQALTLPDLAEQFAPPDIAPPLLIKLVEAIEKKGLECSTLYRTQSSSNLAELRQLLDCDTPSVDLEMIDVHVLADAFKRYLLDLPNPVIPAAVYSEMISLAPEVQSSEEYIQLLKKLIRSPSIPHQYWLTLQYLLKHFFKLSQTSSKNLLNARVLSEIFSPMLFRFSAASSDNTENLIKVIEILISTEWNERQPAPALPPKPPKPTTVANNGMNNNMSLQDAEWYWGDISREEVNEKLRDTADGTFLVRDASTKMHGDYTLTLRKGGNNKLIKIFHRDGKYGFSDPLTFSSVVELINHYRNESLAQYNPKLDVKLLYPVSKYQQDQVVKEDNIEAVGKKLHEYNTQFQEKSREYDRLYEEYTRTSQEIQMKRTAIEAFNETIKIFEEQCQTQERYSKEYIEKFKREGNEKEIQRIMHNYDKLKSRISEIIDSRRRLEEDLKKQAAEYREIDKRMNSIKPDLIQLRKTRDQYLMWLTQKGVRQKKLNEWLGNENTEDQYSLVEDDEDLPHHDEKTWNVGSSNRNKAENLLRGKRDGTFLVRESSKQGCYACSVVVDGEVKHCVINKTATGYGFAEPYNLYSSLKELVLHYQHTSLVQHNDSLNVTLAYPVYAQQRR
# Protocol: as §7, §8, §9, §10, §5, §11
# [6] = target: PI3Kβ (Homo sapiens, UniProt P42338); assay: Kinase experiment (ADP-Glo, luminescence), PI3Kβ; assay type: biochemical; settings: final concentration of ATP 10 μM; read-out: IC50 of compound to PI3K (nM) β
# PI3Kβ, sequence (P42338 whole entry): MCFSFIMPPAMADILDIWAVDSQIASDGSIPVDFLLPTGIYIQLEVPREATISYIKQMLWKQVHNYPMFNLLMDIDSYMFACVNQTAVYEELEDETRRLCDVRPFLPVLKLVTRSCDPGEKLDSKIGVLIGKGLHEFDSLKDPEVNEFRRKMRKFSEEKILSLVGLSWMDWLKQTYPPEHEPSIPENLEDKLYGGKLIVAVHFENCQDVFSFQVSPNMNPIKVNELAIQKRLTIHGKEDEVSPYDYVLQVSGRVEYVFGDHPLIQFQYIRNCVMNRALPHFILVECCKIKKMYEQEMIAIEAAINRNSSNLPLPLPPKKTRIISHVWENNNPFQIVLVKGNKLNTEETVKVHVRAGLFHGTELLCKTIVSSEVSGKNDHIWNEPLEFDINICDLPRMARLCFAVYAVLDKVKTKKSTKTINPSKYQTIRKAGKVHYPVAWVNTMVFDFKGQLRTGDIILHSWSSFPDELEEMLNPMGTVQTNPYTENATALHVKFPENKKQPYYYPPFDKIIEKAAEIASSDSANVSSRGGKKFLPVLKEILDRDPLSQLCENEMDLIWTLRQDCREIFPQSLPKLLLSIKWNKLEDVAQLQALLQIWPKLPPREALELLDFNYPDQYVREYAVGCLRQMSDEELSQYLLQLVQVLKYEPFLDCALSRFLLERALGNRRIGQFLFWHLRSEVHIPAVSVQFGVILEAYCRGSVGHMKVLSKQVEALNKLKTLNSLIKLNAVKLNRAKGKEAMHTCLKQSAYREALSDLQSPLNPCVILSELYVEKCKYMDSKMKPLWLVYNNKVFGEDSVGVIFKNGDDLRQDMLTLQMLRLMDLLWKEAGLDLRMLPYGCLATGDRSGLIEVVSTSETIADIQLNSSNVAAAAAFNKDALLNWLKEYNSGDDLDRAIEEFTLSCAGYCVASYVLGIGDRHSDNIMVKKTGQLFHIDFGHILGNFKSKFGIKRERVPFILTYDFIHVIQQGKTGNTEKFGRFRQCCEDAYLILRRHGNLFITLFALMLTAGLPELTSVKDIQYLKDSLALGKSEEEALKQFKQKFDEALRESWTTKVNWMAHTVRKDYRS
# PI3Kβ, sequence (P27986 whole entry partner): as the sequence (P27986 whole entry partner) above
# Protocol: as §7, §8, §9, §10, §5, §11
Structure (SMILES),IC50 [1] [µM],IC50 [2] [µM],clearance [3] [mL/min/kg],AUC [3] [ng·h/mL],Cmax [3] [ng/mL],IC50 [4] [nM],IC50 [5] [nM],IC50 [6] [nM]
"C[C@@H]1COC(=O)N1c1cn2c(n1)-c1ccc(N3CCC[C@H]3C(N)=O)cc1OCC2 [Control compound 1, (2S)-1-(2-((4R)-4-methyl-2-oxooxazolidin-3-yl)-5,6-dihydrobenzo[f]imidazo[1,2-d] [1,4]oxazepin-9-yl)pyrrolidine-2-carboxamide, reference compound]",1.58,0.444,16.6,7880,1960,–,–,–
"NC(=O)[C@@H]1CCCN1c1ccc2c(c1)OCCn1cc(N3C(=O)CC[C@@H]3CO)nc1-2 [Control compound 2, (2S)-1-(2-((2R)-2-(hydroxymethyl)-5-oxopyrrolidine-1-yl)-5,6-dihydrobenzo[f]imidazo[1,2-d][1,4]oxazepin-9-yl)pyrrolidine-2-carboxamide, reference compound]",–,0.549,–,–,–,–,–,–
"CC(C)(c1cc(-c2cn3c(n2)-c2ccc(N4CCC[C@H]4C(N)=O)cc2OCC3)ccn1)C(F)(F)F [Control compound 3, (2S)-1-(2-(2-(1,1,1-trifluoro-2-methylpropan-2-yl)pyridn-4-yl)-5,6-dihydrobenzo[f]imidazo[1,2-d][1,4]oxazepin-9-yl)pyrrolidine-2-carboxamide, reference compound]",2.07,0.519,–,–,–,–,–,–
"CC(C)C1C(=O)N(C2CC2)C(=O)N1c1cn2c(n1)-c1ccc(N3CCC[C@H]3C(N)=O)cc1OCC2 (stereo partly drawn) [Example 2, (2S)-1-(2-(3-cyclopropyl-5-isopropyl-2,4-dioxoimidazolidin-1-yl)-5,6-dihydrobenzo[f]imidazo[1,2-d][1,4]oxazepin-9-yl)pyrrolidine-2-carboxamide]",0.361,0.07,1.98,53000,4340,300 to 600,< 5,> 600
"CC(C)C1C(=O)N(c2ccc(F)cc2)C(=O)N1c1cn2c(n1)-c1ccc(N3CCC[C@H]3C(N)=O)cc1OCC2 (stereo partly drawn) [Example 4, (2S)-1-(2-(3-(4-fluorophenyl)-5-isopropyl-2,4-dioxoimidazolidin-1-yl)-5,6-dihydrobenzo[f]imidazo [1,2-d][1,4]oxazepin-9-yl)pyrrolidine-2-carboxamide]",–,–,4.75,29100,2690,> 600,5 to 20,> 600
"CN1C(=O)C(C2CC2)N(c2cn3c(n2)-c2ccc(N4CCC[C@H]4C(N)=O)cc2OCC3)C1=O (stereo partly drawn) [Example 5, (2S)-1-(2-(5-cyclopropyl-3-methyl-2,4-dioxoimidazolidin-1-yl)-5,6-dihydrobenzo[f]imidazo [1,2-d] [1,4]oxazepin-9-yl) pyrrolidine-2-carboxamide]",4.07,0.373,–,–,–,–,5 to 20,–
"CC(C)C1C(=O)N(C2CCC2)C(=O)N1c1cn2c(n1)-c1ccc(N3CCC[C@H]3C(N)=O)cc1OCC2 (stereo partly drawn) [Example 6, (2S)-1-(2-(3-cyclobutyl-5-isopropyl-2,4-dioxoimidazolidin-1-yl)-5,6-dihydrobenzo[f]imidazo [1,2-d] [1,4]oxazepin-9-yl)pyrrolidine-2-carboxamide]",–,–,–,–,–,–,5 to 20,–
"CC(C)C1C(=O)N(c2ccccc2)C(=O)N1c1cn2c(n1)-c1ccc(N3CCC[C@H]3C(N)=O)cc1OCC2 (stereo partly drawn) [Example 9, (2S)-1-(2-(5-isopropyl-2,4-dioxo-3-phenylimidazolidine-1-yl)-5,6-dihydrobenzo[f]imidazo[1,2-d] [1,4]oxazepin-9-yl)pyrrolidine-2-carboxamide]",–,0.142,–,–,–,–,5 to 20,–
"CN1C(=O)CN(c2cn3c(n2)-c2ccc(N4CCC[C@H]4C(N)=O)cc2OCC3)C1=O [Example 28, (2S)-1-(2-(3-methyl-2,4-dioxoimidazolidin-1-yl)-5,6-dihydrobenzo[f]imidazo[1,2-d] [1,4]oxazepin-9-yl)pyrrolidine-2-carboxamide]",3.92,0.468,–,–,–,–,–,–

# Other lines, results leading:
IC50 [1] [µM],IC50 [2] [µM],clearance [3] [mL/min/kg],AUC [3] [ng·h/mL],Cmax [3] [ng/mL],IC50 [4] [nM],IC50 [5] [nM],IC50 [6] [nM],Structure (SMILES)
–,0.176,–,–,–,> 600,< 5,> 600,"CC(C)C1C(=O)N(C)C(=O)N1c1cn2c(n1)-c1ccc(N3CCC[C@H]3C(N)=O)cc1OCC2 (stereo partly drawn) [Example 1, (2S)-1-(2-(5-isopropyl-3-methyl-2,4-dioxoimidazolidin-1-yl)-5,6-dihydrobenzo[f]imidazo [1,2-d][1,4]oxazepin-9-yl)pyrrolidine-2-carboxamide]"
–,–,–,–,–,–,< 5,–,"CC(C)C1C(=O)N(CC(F)(F)F)C(=O)N1c1cn2c(n1)-c1ccc(N3CCC[C@H]3C(N)=O)cc1OCC2 (stereo partly drawn) [Example 3, (2S)-1-(2-(5-isopropyl-2,4-dioxo-3-(2,2,2-trifluoroethyl)imidazolidine-1-yl)-5,6-dihydrobenzo[f]imdazo[1,2-d] [1,4]oxazepin-9-yl)pyrrolidine-2-carboxamide]"
–,–,–,–,–,–,5 to 20,–,"CCN1C(=O)C(C(C)C)N(c2cn3c(n2)-c2ccc(N4CCC[C@H]4C(N)=O)cc2OCC3)C1=O (stereo partly drawn) [Example 7, (2S)-1-(2-(3-ethyl-5-isopropyl-2,4-dioxoimidazolidin-1-yl)-5,6-dihydrobenzo[f]imidazo [1,2-d] [1,4]oxazepin-9-yl) pyrrolidine-2-carboxamide]"
–,0.074,8.76,18600,1830,–,< 5,–,"CC(C)C1C(=O)N(C(C)C)C(=O)N1c1cn2c(n1)-c1ccc(N3CCC[C@H]3C(N)=O)cc1OCC2 (stereo partly drawn) [Example 23, (2S)-1-(2-(3,5-diisopropyl-2,4-dioxoimidazolidin-1-yl)-5,6-dihydrobenzo[f]imidazo[1,2-d] [1,4]oxazepin-9-yl)pyrrolidine-2-carboxamide]"
0.415,0.107,1.5,66400,5030,300 to 600,< 5,300 to 600,"CC(C)[C@@H]1C(=O)N(C2CC2)C(=O)N1c1cn2c(n1)-c1ccc(N3CCC[C@H]3C(N)=O)cc1OCC2 [Example 32, (2S)-1-(2-((5R)-3-cyclopropyl-5-isopropyl-2,4-dioxoimidazolidin-1-yl)-5,6-dihydrobenzo[f]imidazo[1,2-d] [1,4]oxazepin-9-yl)pyrrolidine-2-carboxamide]"
